Results on 19 compounds are retold here after patent US20140322076A1, “ANTIMICROBIAL COMPOSITION” (priority 2011, published 2014).

The subject of the assay is Escherichia coli (E. coli - ATCC #10536). As to the kind of experiment: Automated assessment of efficacy in surfactant base (Example 4). Format: cell-based. As to conditions: 15 seconds exposure; for DeltaOD (450 nm) Mean: OD450 (16 hours) − OD450 (time zero), 2.85% sodium cocoyl glycinate + 1.85% sodium lauroamphoacetate; for DeltaOD (450 nm) Mean / DeltaOD (590 nm) Mean: pH 10; for DeltaOD (590 nm) Mean: OD590 (16 hours) − OD590 (time zero), same surfactant solution; for Nrep = No. of replicates showing growth (out of 4): surfactant solution pH 10. As to the method: In these examples, the efficacy of combinations of isopropylmethylphenols and terpineol were tested in a surfactant cleansing formulation comprising 2.85% sodium cocoyl glycinate and 1.85% sodium lauroamphoacetate. This corresponds to a 50% in use dilution with water of a typical neat formulation containing 5.7% cocoyl glycinate and 3.7% % sodium lauroamphoacetate during hand washing. Solutions were prepared such that the concentrations of the surfactant components and test actives were 1.1 times the final desired concentration in order to allow for dilution with the bacterial inoculum in the test. The solutions were manually adjusted to pH 10.0 by dropwise addition of sodium hydroxide solution, as measured with a pH meter at ambient temperature. Solutions of the isopropylmethylphenols and/or terpineols were prepared at a maximum of 24 hours before testing. The same terpineol was used as in Example 1.
The efficacy of the combinations of the present invention was determined against the same bacterium as in Example 1, Escherichia coli (E. coli—ATCC #10536), at a concentration of approximately 1×10^8 bacteria per mL.
Tests were conducted using standard microtiter plate assays using an automated liquid handling system. 270 μl of the surfactant test solution was pipetted into each well of the microtitre plate (Nunc F Gamma Irradiated 96F untreated microtitre plates of clear polystyrene) and 30 μl of the bacterial suspension was then added. After exactly 15 seconds of bacterial exposure, a 30 μl volume of bacterial cells was withdrawn and transferred to 270 μl of D/E quench solution. After 5 minutes in the D/E quench, the optical density (OD) was measured for each plate in turn at two specific wavelengths (450 nm and 590 nm). These provide a dual check of antimicrobial activity, as the OD450 reading is specific for the yellow colour of D/E quench when bacterial growth is observed, whereas OD590 is specific for the initial purple colour of the D/E quench which is retained if no bacterial growth is observed. After the time zero OD measurements, plates were then incubated at 37° C. overnight (16 hours) before repeating the OD measurements. Delta OD values were calculated by subtracting […] at time=16 hours.
Bacterial growth is observed as an increase in OD450 and a decrease in OD590. To identify antibacterially efficacious systems (those preventing appreciable bacterial growth after incubation), the following threshold changes in OD readings have been adopted: if (1). OD450 increases by less than 0.2 absorbance unit (AU) on incubation and (2). OD590 decreases by less than 0.35 AU on incubation. Conversely, where OD450 increases by more than 0.1 AU and OD590 decreases by more than 0.1 AU after incubation, corresponding to a colour shift from purple to yellow, the test system allows bacterial growth and is not deemed efficacious. Four replicate measurements in the same plate have been made for each test system. The number of replicate wells showing either bacterial growth or no growth is also readily assessed by eye by following the colour change. Thymol and terpineol were tested both alone and in combination for comparison purposes.
In each case, binary mixtures were assessed in the weight to weight ratio isopropylmethylphenol to alpha terpineol of 1:2.5.

As to `Cc1ccc(C(C)C)c(O)c1` [4:2, thymol], the “DeltaOD (450 nm) Mean” value is given as −0.54, the “DeltaOD (590 nm) Mean” value is 0.64 and the “Nrep = No. of replicates showing growth (out of 4)” value amounted to 4.

As for `Cc1ccc(C(C)C)c(O)c1` [4:3, thymol], the “DeltaOD (450 nm) Mean” value is on record as −0.54, the “DeltaOD (590 nm) Mean” value was 0.56 and the “Nrep = No. of replicates showing growth (out of 4)” value is given as 4.

As for `Cc1ccc(C(C)C)c(O)c1` [4:4, thymol], the “DeltaOD (450 nm) Mean” value is reported as −0.57, the “DeltaOD (590 nm) Mean” value stood at 0.55 and the “Nrep = No. of replicates showing growth (out of 4)” value is 4.

With `Cc1ccc(C(C)C)c(O)c1` [4:5, thymol], the “DeltaOD (450 nm) Mean” value is −0.58, the “DeltaOD (590 nm) Mean” value is 0.55 and the “Nrep = No. of replicates showing growth (out of 4)” value is 4.

Turning to `Cc1ccc(C(C)C)c(O)c1` [4:6, thymol], the “DeltaOD (450 nm) Mean” value is −0.58, the “DeltaOD (590 nm) Mean” value is 0.54 and the “Nrep = No. of replicates showing growth (out of 4)” value was found to be 4.

As for `Cc1ccc(C(C)C)c(O)c1` [4:7, thymol], the “DeltaOD (450 nm) Mean” value is −0.59, the “DeltaOD (590 nm) Mean” value is given as 0.54 and the “Nrep = No. of replicates showing growth (out of 4)” value turned out to be 4.

For the compound `Cc1ccc(C(C)C)c(O)c1` [4:8, thymol], the “DeltaOD (450 nm) Mean” value is given as −0.58, the “DeltaOD (590 nm) Mean” value was 0.55 and the “Nrep = No. of replicates showing growth (out of 4)” value was found to be 4.

For `Cc1ccc(C(C)C)c(O)c1` [4:9, thymol], the “DeltaOD (450 nm) Mean” value is on record as −0.55, the “DeltaOD (590 nm) Mean” value is 0.65 and the “Nrep = No. of replicates showing growth (out of 4)” value came to 4.

Take `CC1=CCC(O)(C(C)C)CC1` (stereo not drawn) [4:10, terpineol]: the “DeltaOD (450 nm) Mean” value is listed as −0.45, the “DeltaOD (590 nm) Mean” value is reported as 0.64 and the “Nrep = No. of replicates showing growth (out of 4)” value amounted to 4.

In the case of `CC1=CCC(O)(C(C)C)CC1` (stereo not drawn) [4:11, terpineol], the “DeltaOD (450 nm) Mean” value was −0.47, the “DeltaOD (590 nm) Mean” value amounted to 0.59 and the “Nrep = No. of replicates showing growth (out of 4)” value is given as 4.

Take `CC1=CCC(O)(C(C)C)CC1` (stereo not drawn) [4:12, terpineol]: the “DeltaOD (450 nm) Mean” value was −0.48, the “DeltaOD (590 nm) Mean” value stood at 0.58 and the “Nrep = No. of replicates showing growth (out of 4)” value was determined as 4.

Regarding `CC1=CCC(O)(C(C)C)CC1` (stereo not drawn) [4:13, terpineol], the “DeltaOD (450 nm) Mean” value is −0.51, the “DeltaOD (590 nm) Mean” value is 0.57 and the “Nrep = No. of replicates showing growth (out of 4)” value was determined as 4.

Take `CC1=CCC(O)(C(C)C)CC1` (stereo not drawn) [4:14, terpineol]: the “DeltaOD (450 nm) Mean” value is recorded as −0.54, the “DeltaOD (590 nm) Mean” value stood at 0.56 and the “Nrep = No. of replicates showing growth (out of 4)” value is 4.

For the compound `CC1=CCC(O)(C(C)C)CC1` (stereo not drawn) [4:15, terpineol], the “DeltaOD (450 nm) Mean” value is listed as −0.56, the “DeltaOD (590 nm) Mean” value was 0.55 and the “Nrep = No. of replicates showing growth (out of 4)” value is recorded as 4.

`CC1=CCC(O)(C(C)C)CC1` (stereo not drawn) [4:16, terpineol]: the “DeltaOD (450 nm) Mean” value is reported as −0.57, the “DeltaOD (590 nm) Mean” value was determined as 0.55 and the “Nrep = No. of replicates showing growth (out of 4)” value is 4.

Turning to `CC1=CCC(O)(C(C)C)CC1` (stereo not drawn) [4:17, terpineol], the “DeltaOD (450 nm) Mean” value is recorded as −0.53, the “DeltaOD (590 nm) Mean” value came out at 0.67 and the “Nrep = No. of replicates showing growth (out of 4)” value came to 4.

Regarding `Cc1cc(O)cc(C(C)C)c1` [4:18, 3-isopropyl-5-methylphenol], the “DeltaOD (450 nm) Mean” value is given as −0.54, the “DeltaOD (590 nm) Mean” value is 0.63 and the “Nrep = No. of replicates showing growth (out of 4)” value is listed as 4.

On to `Cc1cc(O)cc(C(C)C)c1` [4:19, 3-isopropyl-5-methylphenol], for which the “DeltaOD (450 nm) Mean” value is −0.53, the “DeltaOD (590 nm) Mean” value is reported as 0.58 and the “Nrep = No. of replicates showing growth (out of 4)” value was 4.

In the case of `Cc1cc(O)cc(C(C)C)c1` [4:20, 3-isopropyl-5-methylphenol], the “DeltaOD (450 nm) Mean” value was −0.56, the “DeltaOD (590 nm) Mean” value turned out to be 0.57 and the “Nrep = No. of replicates showing growth (out of 4)” value amounted to 4.
